Usually EC50 stands for the concentration at which the effect is half-maximal. The melting point is the temperature, or range, at which the solid turns liquid. For orientation: Kd means the free concentration of one partner at which half of the binding sites on the other are occupied at equilibrium, for simple one-to-one binding. A lower Kd goes with higher affinity.

This note sets out measurements from patent US8669072B2, “Oxadiazoline ligands for modulating the expression of exogenous genes via an ecdysone receptor complex” (Intrexon Corporation, priority 2003, dated 2014).

One data set deals with Kc. Nature of the data set: Kc EC50. It is filed as cell-based.
A further data set addresses T1, Bombyx mori EcR (VBE) (Bombyx mori, UniProt P49881).
T1 construct: expressed in transfected cells; host or cells: Human HEK-293 cells, retrovirally infected, clone Z3
T1 sequence (P49881 86-606 limits assumed): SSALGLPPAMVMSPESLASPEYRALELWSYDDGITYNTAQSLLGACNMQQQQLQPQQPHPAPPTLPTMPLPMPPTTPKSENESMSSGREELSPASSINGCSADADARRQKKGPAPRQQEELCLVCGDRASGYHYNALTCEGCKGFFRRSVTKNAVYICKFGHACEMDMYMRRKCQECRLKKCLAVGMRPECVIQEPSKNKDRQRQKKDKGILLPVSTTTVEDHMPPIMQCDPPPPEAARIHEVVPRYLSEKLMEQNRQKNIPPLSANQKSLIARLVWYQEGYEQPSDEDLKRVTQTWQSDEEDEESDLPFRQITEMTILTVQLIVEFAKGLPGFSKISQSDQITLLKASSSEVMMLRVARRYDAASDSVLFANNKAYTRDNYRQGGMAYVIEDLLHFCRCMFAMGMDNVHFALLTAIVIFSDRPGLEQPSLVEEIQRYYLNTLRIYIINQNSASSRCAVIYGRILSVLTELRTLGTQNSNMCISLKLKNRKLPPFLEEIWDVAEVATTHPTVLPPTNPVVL
T1 sequence (P19793 1-462 partner): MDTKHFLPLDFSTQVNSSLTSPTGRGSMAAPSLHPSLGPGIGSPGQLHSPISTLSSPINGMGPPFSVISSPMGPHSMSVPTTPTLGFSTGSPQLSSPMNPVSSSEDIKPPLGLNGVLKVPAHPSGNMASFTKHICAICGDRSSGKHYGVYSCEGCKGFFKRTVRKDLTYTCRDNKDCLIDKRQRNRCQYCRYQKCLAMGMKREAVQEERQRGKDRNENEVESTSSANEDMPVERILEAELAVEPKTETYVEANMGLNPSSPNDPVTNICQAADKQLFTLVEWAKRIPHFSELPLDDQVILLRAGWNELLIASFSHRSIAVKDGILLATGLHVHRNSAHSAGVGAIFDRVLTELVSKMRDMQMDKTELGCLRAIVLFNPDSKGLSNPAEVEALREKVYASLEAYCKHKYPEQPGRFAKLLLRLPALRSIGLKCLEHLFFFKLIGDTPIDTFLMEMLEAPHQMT
The data set can be described thus: Z3 assay: β-galactosidase reporter gene induction in HEK-293 clone Z3 (CVBE / 6XEcRE LacZ). It counts as cell-based. The note with it: for fold induction at 33 µM: HEK293, 48 h, read-out: Fold Induction Average, Z3 assay; for Rel Max FI, Z3 assay: maximum fold induction relative to that of GS-E ligand. On the technique in general: Reporter assays use an easily measured gene product as a stand-in for the process of interest.

The test system of a further data set is Plodia. Nature of the data set: Plodia EC50. It is filed as cell-based.
Data set [1] concerns the target T2, GAL4 DBD (1-147)-CfEcR(DEF)/VP16AD-βRXREF-LmUSPEF (Choristoneura fumiferana, UniProt O77240).
T2 construct: The wild-type D, E, and F domains from spruce budworm Choristoneura fumiferana EcR (“CfEcR-DEF”)
Nature of the data set: cell-based. Conditions: for Rel Max FI, 27-63 assay: maximum fold induction relative to that of GS-E ligand; for fold induction at 33.3 µM: 48 h, read-out: Fold Induction Average, 27-63 assay. An outline of the steps:
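CHO clone stably carrying the GAL4-DBD–spruce budworm EcR(DEF) and VP16–RXR/USP chimeric receptor with a GAL4-responsive luciferase reporter; ligand added from DMSO stock diluted 300-fold.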

For data set [2], the target named is T3, GAL4 DBD-CfEcR(DEF)/VP16AD-MmRXRE (Choristoneura fumiferana, UniProt O77240).
T3 construct: The wild-type D, E, and F domains from spruce budworm Choristoneura fumiferana EcR (“CfEcR-DEF”)
Nature of the data set: 13B3 assay: luciferase reporter gene induction in stable CHO clone 13B3. It counts as cell-based. Conditions: for fold induction at 33.3 µM: 48 h, read-out: Fold Induction Average, 13B3 assay; for Rel Max FI, 13B3 assay: maximum fold induction relative to that of GS-E ligand. An outline of the steps:
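Stable CHO clone 13B3 co-expressing GAL4 DBD-CfEcR(DEF) and VP16AD-MmRXRE with a GAL4 RE-luciferase reporter; ligands from DMSO stocks diluted 300-fold. Luciferase read by luminescence 48 h after treatment, duplicate wells averaged. Fold induction = RLU treated/RLU DMSO; EC50 from three-parameter logistic fit.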

The subject of a further data set is Cabbage Looper. The data set can be described thus: Insect toxicity feeding bioassay, CL. It counts as in vivo. The note with it: in vivo. As for the experimental part:
(§1) The compound to be evaluated was dissolved in an appropriate solvent, usually a mix of acetone, methanol, and water. Test solutions were made by serial dilution of a stock test solution with acetone, methanol, and water. Initial evaluations were made at one or more concentrations on one or more of the following insects:
(§2) Feeding bioassays were conducted in bioassay trays containing insect diet. Treatments were made by applying 50 μL of test solution to the surface of the diet in each of 5 wells. After the test solution dried, each well was infested with a single neonate larva. The trays were held for six days and then the mortality rating was determined for each treatment.

For a further data set, the system named is WFN (white fly). The data set can be described thus: Insect toxicity contact bioassay, WFN. It is filed as in vivo. Conditions: for Insect Toxicity LC50, WFN: in vivo. Here is the method:
as §1
(§3) Contact bioassays (green peach aphid, two-spotted spider mite, white fly) were conducted by applying a solution of the test compound to the inside surface of a Petri dish. The solution was allowed to air-dry, then each dish was infested and the larvae from each treatment were transferred to a bioassay tray. The trays were held for one to seven days, and the mortality rating was determined for each treatment.

The subject of the next data set is Beet Armyworm. Nature of the data set: Insect toxicity feeding bioassay, BAW. The note with it: in vivo. It counts as in vivo. As for the experimental part:
as §1, §2

The subject of another data set is Tobacco Budworm. The data set can be described thus: Insect toxicity bioassay, TBW. The note with it: in vivo. It is filed as in vivo. As for the experimental part: as §1, §2
Some of the tobacco budworm tests were conducted as follows. A test solution containing 600 ppm was made by dissolving a compound of the invention in a 1:1 acetone:methanol solution, then adding water to give a 5:5:90 acetone:methanol:water solution, and finally a surfactant was added at an equivalent of 7.37 g of surfactant per 100 L of test solution (1 ounce of surfactant per 100 gallons of test solution). Appropriate dilutions were prepared in water from the 600 ppm solution. A detached cotton leaf, Gossypium hirsutum was placed on moistened filter paper in a Petri dish (100×20 mms). The leaf was sprayed with the test solution using a rotating turntable sprayer and allowed to dry. The dish was infested with 10 first instar larvae of the tobacco budworm and covered with the lid. If the larvae were alive two days after treatment, fresh untreated cotton leaves were added. All treatments were maintained at 23.9-26.7° C. (75-80° F.) under fluorescent light in a well-ventilated room. Percent mortality was determined at four days after treatment.

The target of data set [3] is CfEcR (CDEF)/CfUSP, GST fusion protein (Choristoneura fumiferana, UniProt O77240). Nature of the data set: CfEcR (CDEF)/CfUSP GST fusion protein assay. It counts as binding.
Data set [4] relates to MTA (two-spotted spider mite). Nature of the data set: Insect toxicity contact bioassay, MTA. It counts as in vivo. The note with it: for Insect Toxicity LC50, MTA: in vivo. As for the experimental part: as §1, §3

Read-outs that look alike come from different tables or passages of the source.

Chain of CfEcR (CDEF)/CfUSP, GST fusion protein (O77240 entry or part of it): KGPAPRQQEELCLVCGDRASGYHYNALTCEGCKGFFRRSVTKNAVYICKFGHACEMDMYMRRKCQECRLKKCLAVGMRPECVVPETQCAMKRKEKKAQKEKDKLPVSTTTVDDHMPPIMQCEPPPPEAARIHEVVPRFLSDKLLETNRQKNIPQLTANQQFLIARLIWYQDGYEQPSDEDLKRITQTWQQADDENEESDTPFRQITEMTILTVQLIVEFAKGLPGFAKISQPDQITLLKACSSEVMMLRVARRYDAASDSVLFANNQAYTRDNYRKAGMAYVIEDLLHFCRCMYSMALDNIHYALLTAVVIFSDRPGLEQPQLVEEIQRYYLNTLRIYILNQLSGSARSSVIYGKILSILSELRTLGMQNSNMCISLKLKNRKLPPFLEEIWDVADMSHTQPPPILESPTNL
Chain of CfEcR (CDEF)/CfUSP, GST fusion protein (O76202 whole entry, further chain, the tested form may be a part): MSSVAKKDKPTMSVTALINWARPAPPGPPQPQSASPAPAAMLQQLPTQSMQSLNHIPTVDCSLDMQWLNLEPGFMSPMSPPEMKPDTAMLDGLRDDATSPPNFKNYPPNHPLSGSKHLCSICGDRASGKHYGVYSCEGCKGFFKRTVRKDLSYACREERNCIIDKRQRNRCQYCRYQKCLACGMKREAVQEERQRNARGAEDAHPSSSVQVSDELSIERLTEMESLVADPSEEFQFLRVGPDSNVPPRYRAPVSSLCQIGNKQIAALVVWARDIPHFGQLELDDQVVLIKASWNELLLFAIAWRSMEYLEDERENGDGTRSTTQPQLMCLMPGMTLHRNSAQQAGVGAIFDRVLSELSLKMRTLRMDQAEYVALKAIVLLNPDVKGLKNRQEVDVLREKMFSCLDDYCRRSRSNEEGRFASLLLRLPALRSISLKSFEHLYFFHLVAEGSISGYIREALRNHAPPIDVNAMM

`COc1cccc(C(=O)NN2C(c3ccccc3)=NOC2(C)C)c1C` [RG-120042, N-(5,5-dimethyl-3-phenyl-[1,2,4]oxadiazol-4-yl)-3-methoxy-2-methyl-benzamide] registered a melting point of 141 to 142 °C. This compound showed an EC50 in the data set with Kc of 29 µM. Besides, the fold induction at 33 µM on Bombyx mori EcR (VBE) worked out at 19.3. In the data set on Plodia, this compound came in with an EC50 of 0.481 µM. For the same compound, in data set [1], the EC50 was over 33 µM and the “Rel Max FI, 27-63 assay” value is reported as 0. Also, the fold induction at 33.3 µM in [2] came to 3.3.
For `CCc1c(OC)cccc1C(=O)NN1C(c2cc(C)cc(C)c2)=NOC1(C)C` [RG-120080, N-[3-(3,5-dimethyl-phenyl)-5,5-dimethyl-[1,2,4]oxadiazol-4-yl]-2-ethyl-3-methoxy-benzamide], in the data set on Cabbage Looper, the “Insect Toxicity LC50, CL” value was determined as 47 ppm. In addition, in the data set with WFN (white fly) (150 ppm), the “Insect Toxicity % control @ 150 ppm, WFN” value is on record as 0% @ 150. The “Insect Toxicity LC50, BAW” value in the data set with Beet Armyworm was 23 ppm. Besides, at Bombyx mori EcR (VBE), the EC50 came to 3.95 µM; the fold induction at 33 µM is 310; the “Rel Max FI, Z3 assay” value is listed as 0.71. Further, the “Insect Toxicity LC50, TBW” value in the data set on Tobacco Budworm is over 150 ppm. In [1], a half-maximal effect (EC50) was put at 8.35 µM and the “Rel Max FI, 27-63 assay” value is 1.29. Further, in data set [2], it took 12.3 µM to reach a half-maximal effect (EC50); the fold induction at 33.3 µM came out at 717; the “Rel Max FI, 13B3 assay” value worked out at 1.04. Further, in [3], the Kd came to 0.0119 µM. In addition, the “Insect Toxicity % control @ 150 ppm, MTA” value in data set [4] (150 ppm) is 0% @ 150.
For the compound `CCc1ccc(C(=O)NN2C(c3ccccc3)=NOC23CCCC3)cc1` [RG-120125], the “Insect Toxicity LC50, CL” value in the data set on Cabbage Looper turned out to be 23 ppm. Also, in the data set on WFN (white fly), the “Insect Toxicity LC50, WFN” value turned out to be 150 ppm. The “Insect Toxicity LC50, BAW” value in the data set on Beet Armyworm worked out at 98 ppm. At Bombyx mori EcR (VBE), the concentration for a half-maximal effect (EC50) was determined as 10 µM; the fold induction at 33 µM was 254; the “Rel Max FI, Z3 assay” value was 0.67. Moreover, the “Insect Toxicity LC50, TBW” value with Tobacco Budworm is given as over 150 ppm. Besides, in data set [1], the EC50 was about 20 µM; the fold induction at 33.3 µM stood at 510; the “Rel Max FI, 27-63 assay” value is on record as 0.27. Besides, in data set [2], the EC50 is over 33.3 µM; the fold induction at 33.3 µM came to 82.6; the “Rel Max FI, 13B3 assay” value worked out at 0.16. In addition, the EC50 in [3] (GST fusion protein, read-out: CfEcR EC50) was 0.0579 µM. Further, the “Insect Toxicity LC50, MTA” value in data set [4] amounted to 167 ppm.
For `CCc1ccc(C(=O)NN2C(c3cc(C)cc(C)c3)=NOC2(C)CC)cc1` (centres unmarked) [RG-120128], the “Insect Toxicity LC50, CL” value with Cabbage Looper was determined as 17 ppm. Besides, in the data set with WFN (white fly), the “Insect Toxicity LC50, WFN” value is on record as over 150 ppm. Moreover, in the data set on Beet Armyworm, the “Insect Toxicity LC50, BAW” value is reported as 47 ppm. For the same compound, the fold induction at 33 µM at Bombyx mori EcR (VBE) amounted to 403. Besides, in the data set with Tobacco Budworm, the “Insect Toxicity LC50, TBW” value is given as over 150 ppm. In [1], the EC50 is about 20 µM; the fold induction at 33.3 µM amounted to 338; the “Rel Max FI, 27-63 assay” value was determined as 0.18. Besides, the fold induction at 33.3 µM in data set [2] was 129. This compound came in with an EC50 in [3] of 0.0285 µM. Also, the “Insect Toxicity LC50, MTA” value in [4] was over 150 ppm.
